# Source: patent US6632422B2, “Antiperspirant and deodorant products and methods for their use” (priority 2000, dated 2003)
# Where a name gives a salt, the structure may show the parent alone. Read-outs that look alike come from different tables or passages of the source.
# Columns and labels:
# [1] = system: secretory coil cells of human eccrine glands; assay: Inhibition of methylcholine-induced calcium influx into human eccrine secretory coil cells (Fura-2); type: cell-based
# Protocol: The procedure is performed on an isolated human sweat gland. Collapsed segments of secretory coil are held between two glass pipettes in the perfusion bath of an inverted microscope and bathed at 37° C. in a solution buffered to pH 7.4. Intracellular calcium may be measured by any convenient means; in our tests the fluorescent dye FURA-2 AM was used (full details are given in Examples 1 and 2). The calcium influx induced by the administration of methylcholine at 1 μmol.dm^−3 is compared before and after the introduction of the test material into the buffer solution. Test materials are classed as CCBAs if they are able to reduce the methylcholine-induced calcium influx into the cells, preferably by at least 20%, more preferably by at least 50%. The concentration of test material used should be between 1 and 100 μmol.dm^−3 for pure compounds, 25 μmol.dm^−3 being a typical concentration of use. When the test material used is not a pure compound, for example when it is a plant extract, allowance must be made for the non-active components in the extract when choosing the test dosage.
# (§1) Collapsed segments of secretory coil were held between two glass pipettes in the perfusion bath of an inverted Olympus IMT-2 microscope and bathed in a solution at 37° C. containing (in mmol.dm^−3): sodium chloride, 130; HEPES (buffer; 4-[2-hydroxyethyl]-1-piperazineethanesulphonic acid), 20; potassium chloride, 5; calcium chloride, 1; magnesium chloride, 1; and glucose, 10. The pH of the solution was adjusted to 7.4 using 1 mol.dm^−3 sodium hydroxide solution.
# The calcium influx was induced by the administration of methylcholine (a cholinergic agonist) at 1 μmol.dm^−3. This was first done for control solutions containing no CCBA and then for test solutions containing tetrandrine (various dosages).
# (§2) Intracellular calcium concentration was measured using the fluorescent probe Fura-2, a dye that has high affinity for calcium. When illuminated with ultraviolet light at 350 and 380 nm, Fura-2 emits corresponding fluorescent signals. Importantly, when calcium binds to the dye, the magnitude of the emitted fluoresence signal alters. It is these changes that are used to calculate the intracellular calcium concentration (vide infra).
# Segments of secretory coil were incubated for 40 minutes, at 37° C., with 5 μm.dm^−3 Fura-2 AM. This form of Fura-2 is lipid soluble and readily enters the cell where the AM group is cleaved off by esterases, leaving the fluorescent lipid-insoluble dye trapped within the cells. Excitation light at 350 and 380 nm was supplied from a computer controlled Photon Technology International (PTI) spectrofluorimeter. This light was passed through a 390 nm dichroic mirror, prior to passage through the microscope objective (×40) and onto the tissue sample. The fluorescence resulting from the tissue was passed through a 505 nm bandpass filter, before being detected by a photomultiplier tube. The output from the photomultiplier tube was digitised and analysed using Photon Technology International software. Background fluorescence (measured prior to introduction of the Fura-2 AM) was subtracted from the total signal for each wavelength and a value representing the intracellular calcium concentration was obtained by dividing the fluorescence value resulting from the 350 nm excitation light by that resulting from the 380 nm excitation light.
# [2] = system: secretory coil cells of human apocrine glands; assay: Inhibition of methylcholine-induced calcium influx into human apocrine secretory coil cells (Fura-2); type: cell-based
# Protocol: as §1
# as §2, with “It is these changes that are used to calculate the intracellular calcium concentration (vide infra).” left out
# Segments of secretory coil were incubated for 40 minutes, at 37° C., with 5 μm.dm^−3 Fura-2 AM. This form of Fura-2 is lipid soluble and readily enters the cell where the AM group is cleaved off by esterases, leaving the fluorescent lipid-insoluble dye trapped within the cells. […] The fluorescence resulting from the tissue was passed through a 505 nm bandpass filter, before being detected by a photomultiplier tube. The output from the photomultiplier tube was digitised and analysed using Photon Technology International software. […]
# [3] = system: isolated human eccrine glands; assay: In vitro sweat reduction study on isolated human eccrine glands; type: cell-based
# Text: This example illustrates the ability of CCBAs to reduce sweat secretion from isolated human eccrine glands.
# The method employed was analogous to that described by Sato and Sato in Am. J. Physiol., 1973, 225, 1147-1151.
# [4] = system: isolated cannulated monkey palm eccrine sweat glands; settings: in vitro; cited from earlier work
# [5] = system: Staphylococcus epidermidis; settings: cited from earlier work
molecule,measurement,setting,value
"COc1ccc2cc1Oc1ccc(cc1)C[C@H]1c3cc(c(OC)cc3CCN1C)Oc1c(OC)c(OC)cc3c1[C@H](C2)N(C)CC3 [Tetrandrine, tetrandrine]",Ca influx inhibition,"[1]; dosage 1 μmol.dm^−3, methylcholine 1 μmol.dm^−3",24%
same,Ca influx inhibition,"[1]; dosage 10 μmol.dm^−3, methylcholine 1 μmol.dm^−3",44%
same,Ca influx inhibition,"[1]; dosage 25 μmol.dm^−3, methylcholine 1 μmol.dm^−3",75%
same,Ca influx inhibition,"[1]; dosage 50 μmol.dm^−3, methylcholine 1 μmol.dm^−3",96%
same,Ca influx inhibition,"[1]; dosage 100 μmol.dm^−3, methylcholine 1 μmol.dm^−3",100%
same,Ca influx inhibition,"[2]; dosage 10 μmol.dm^−3, methylcholine 50 μmol.dm^−3",60%
same,Ca influx inhibition,"[2]; dosage 50 μmol.dm^−3, methylcholine 50 μmol.dm^−3",93%
same,% reduction in sweat secretion,[3]; dosage 50 μmol.dm^−3,93%
methoxy-verapamil,effect on sweat production,[4],reduce sweat production
COc1ccc(CCN(C)CCCC(C#N)(c2ccc(OC)c(OC)c2)C(C)C)cc1OC (stereo not shown) [Verapamil hydrochloride],% reduction in sweat secretion,[3]; dosage 1000 μmol.dm^−3,93%
"Oc1cc(Cl)ccc1Oc1ccc(Cl)cc1Cl [triclosan, 2′,4,4′-trichloro, 2-hydroxy-diphenyl ether]",MIC,[5]; literature values,0.01 to 10 µg/mL
CCO [ethanol],MIC,"[5]; stated by contrast, no source given",greater than 1 mg.ml^−1
"CC(C)=CCCC(C)=CCCC(C)=CCO [farnesol, 3,7,11-trimethyldodeca-2,6,10-trienol]",MIC,[5]; literature values,ca. 25 μg.ml^−1
